One molecule from patent publication US6197335A, “Solid pharmaceutical compositions comprising a cyclosporin and an anionic surfactant” (Sherman; Bernard Charles, priority 1997, dated 2001) can be followed below.

This data set is described as follows: critical micelle concentration of the surfactant in water. It is filed as physicochemical. The source says: The ability of anionic surfactants to solubilize cyclosporins in water substantially increases when the concentration of the surfactant in water substantially exceeds the critical micelle concentration. Using sodium lauryl sulfate, for example, the critical micelle concentration is about 0.1% by weight.

As to `CCCCCCCCCCCCOS(=O)(=O)[O-].[Na+]` [sodium lauryl sulfate], the critical micelle concentration entry is recorded as “about 0.1 % by weight”.
